Reference: PubChem BioAssay (NCI)
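Cells were grown in 96-well plates and exposed to each compound for 48 hours at five concentrations; endpoints were interpolated linearly between bracketing concentrations, or set to the highest concentration if not reached. GI50: concentration for 50% inhibition of growth. TGI: concentration producing complete growth inhibition.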 Where a SMILES comes first, the peptide text is derived from it. [ ]: non-standard residue; d: D form. ξ: configuration not given here. ξ2Thi = NC(Cc1cccs1)C(=O)O; ξR = N=C(N)NCCCC(N)C(=O)O; ξI = CCC(C)C(N)C(=O)O; ξL = CC(C)CC(N)C(=O)O; ξK = NCCCCC(N)C(=O)O; ξT = CC(O)C(N)C(=O)O; ξA = CC(N)C(=O)O

Tests used:
Assay in all cases: NCI tumour cell line growth inhibition, 48 h
786-0 renal = test system: 786-0 renal
A549 NSCLC = test system: A549 NSCLC
ACHN renal = test system: ACHN renal
CAKI-1 renal = test system: CAKI-1 renal
CCRF-CEM leukemia = test system: CCRF-CEM leukemia
COLO 205 colon = test system: COLO 205 colon
DU-145 prostate = test system: DU-145 prostate
HCT-116 colon = test system: HCT-116 colon
HCT-15 colon = test system: HCT-15 colon
HL-60(TB) leukemia = test system: HL-60(TB) leukemia
HOP-62 NSCLC = test system: HOP-62 NSCLC
HS 578T breast = test system: HS 578T breast
HT29 colon = test system: HT29 colon
IGROV1 ovarian = test system: IGROV1 ovarian
K-562 leukemia = test system: K-562 leukemia
KM12 colon = test system: KM12 colon
LOX IMVI melanoma = test system: LOX IMVI melanoma
M14 melanoma = test system: M14 melanoma
MCF7 breast = test system: MCF7 breast
MDA-MB-231 breast = test system: MDA-MB-231 breast
MDA-MB-435 = test system: MDA-MB-435
MOLT-4 leukemia = test system: MOLT-4 leukemia
NCI-H226 lung = test system: NCI-H226 lung
NCI-H23 lung = test system: NCI-H23 lung
NCI-H460 lung = test system: NCI-H460 lung
NCI-H522 lung = test system: NCI-H522 lung
NCI/ADR-RES ovarian = test system: NCI/ADR-RES ovarian
OVCAR-3 ovarian = test system: OVCAR-3 ovarian
OVCAR-5 ovarian = test system: OVCAR-5 ovarian
OVCAR-8 ovarian = test system: OVCAR-8 ovarian
PC-3 prostate = test system: PC-3 prostate
RPMI-8226 leukemia = test system: RPMI-8226 leukemia
RXF 393 renal = test system: RXF 393 renal
SF-268 CNS = test system: SF-268 CNS
SF-295 CNS = test system: SF-295 CNS
SF-539 CNS = test system: SF-539 CNS
SK-MEL-2 melanoma = test system: SK-MEL-2 melanoma
SK-MEL-5 melanoma = test system: SK-MEL-5 melanoma
SK-OV-3 ovarian = test system: SK-OV-3 ovarian
SN12C renal = test system: SN12C renal
SNB-19 CNS = test system: SNB-19 CNS
SR leukemia = test system: SR leukemia
SW-620 colon = test system: SW-620 colon
T-47D breast = test system: T-47D breast
U251 CNS = test system: U251 CNS
UACC-257 melanoma = test system: UACC-257 melanoma
UACC-62 melanoma = test system: UACC-62 melanoma
UO-31 renal = test system: UO-31 renal
A498 renal = test system: A498 renal
BT-549 breast = test system: BT-549 breast
EKVX NSCLC = test system: EKVX NSCLC
HCC-2998 colon = test system: HCC-2998 colon
HOP-92 NSCLC = test system: HOP-92 NSCLC
MALME-3M melanoma = test system: MALME-3M melanoma
OVCAR-4 ovarian = test system: OVCAR-4 ovarian
SK-MEL-28 melanoma = test system: SK-MEL-28 melanoma
SNB-75 CNS = test system: SNB-75 CNS
TK-10 renal = test system: TK-10 renal

With COc1ccc(C2=CC(c3ccccc3)n3nnnc3N2)cc1 (stereo unspecified) the TGI (786-0 renal) was greater than 100 µM, the TGI (A549 NSCLC) was greater than 100 µM and the TGI (ACHN renal) was greater than 100 µM. The TGI (CAKI-1 renal) was greater than 100 µM, the TGI (CCRF-CEM leukemia) was greater than 100 µM and the TGI (COLO 205 colon) was greater than 100 µM. The TGI (DU-145 prostate) was greater than 100 µM, the TGI (HCT-116 colon) was greater than 100 µM and the TGI (HCT-15 colon) was greater than 100 µM. The TGI (HL-60(TB) leukemia) was greater than 100 µM, the TGI (HOP-62 NSCLC) was greater than 100 µM and the TGI (HS 578T breast) was greater than 100 µM. For the same compound, the TGI (HT29 colon) was greater than 100 µM, the TGI (IGROV1 ovarian) was greater than 100 µM and the TGI (K-562 leukemia) was greater than 100 µM. The TGI (KM12 colon) was greater than 100 µM, the TGI (LOX IMVI melanoma) was greater than 100 µM and the TGI (M14 melanoma) was greater than 100 µM. For the same compound, the TGI (MCF7 breast) was greater than 100 µM, the TGI (MDA-MB-231 breast) was greater than 100 µM and the TGI (MDA-MB-435) was greater than 100 µM. The TGI (MOLT-4 leukemia) was greater than 100 µM, the TGI (NCI-H226 lung) was greater than 100 µM and the TGI (NCI-H23 lung) was greater than 100 µM. The TGI (NCI-H460 lung) was greater than 100 µM, the TGI (NCI-H522 lung) was greater than 100 µM and the TGI (NCI/ADR-RES ovarian) was greater than 100 µM. The TGI (OVCAR-3 ovarian) was greater than 100 µM, the TGI (OVCAR-5 ovarian) was greater than 100 µM and the TGI (OVCAR-8 ovarian) was greater than 100 µM. The TGI (PC-3 prostate) was greater than 100 µM, the TGI (RPMI-8226 leukemia) was greater than 100 µM and the TGI (RXF 393 renal) was greater than 100 µM. The TGI (SF-268 CNS) was greater than 100 µM, the TGI (SF-295 CNS) was greater than 100 µM and the TGI (SF-539 CNS) was greater than 100 µM. The TGI (SK-MEL-2 melanoma) was greater than 100 µM, the TGI (SK-MEL-5 melanoma) was greater than 100 µM and the TGI (SK-OV-3 ovarian) was greater than 100 µM. It also gave a TGI (SN12C renal) greater than 100 µM, a TGI (SNB-19 CNS) greater than 100 µM and a TGI (SR leukemia) greater than 100 µM. The TGI (SW-620 colon) was greater than 100 µM, the TGI (T-47D breast) was greater than 100 µM and the TGI (U251 CNS) was greater than 100 µM. The TGI (UACC-257 melanoma) was greater than 100 µM, the TGI (UACC-62 melanoma) was greater than 100 µM and the TGI (UO-31 renal) was greater than 100 µM.
COc1cc2c3c(n(CCCN)c(=O)c2cc1OC)-c1ccccc1C3=O showed a GI50 (786-0 renal) of 0.396 µM, a TGI (786-0 renal) of 2.02 µM and a GI50 (A498 renal) of 1.9 µM. The TGI (A498 renal) was 9.51 µM, the GI50 (ACHN renal) was 1.14 µM and the TGI (ACHN renal) was 8.1 µM. For the same compound, the GI50 (BT-549 breast) was 4.85 µM, the TGI (BT-549 breast) was 13.9 µM and the GI50 (CAKI-1 renal) was 0.282 µM. For the same compound, the TGI (CAKI-1 renal) was 2.94 µM, the GI50 (COLO 205 colon) was 0.472 µM and the TGI (COLO 205 colon) was 5.72 µM. For the same compound, the GI50 (DU-145 prostate) was 1.83 µM, the TGI (DU-145 prostate) was 4.81 µM and the GI50 (EKVX NSCLC) was 3.85 µM. It also gave a TGI (EKVX NSCLC) of 10.3 µM, a GI50 (HCC-2998 colon) of 0.531 µM and a TGI (HCC-2998 colon) of 2.11 µM. It also gave a GI50 (HCT-116 colon) of 0.0101 µM, a TGI (HCT-116 colon) of 0.172 µM and a GI50 (HCT-15 colon) of 1 µM. For the same compound, the GI50 (HL-60(TB) leukemia) was 5.09 µM, the TGI (HL-60(TB) leukemia) was greater than 100 µM and the GI50 (HOP-62 NSCLC) was 0.351 µM. For the same compound, the TGI (HOP-62 NSCLC) was 2.96 µM, the GI50 (HOP-92 NSCLC) was 15.2 µM and the TGI (HOP-92 NSCLC) was 36.7 µM. For the same compound, the GI50 (HS 578T breast) was 11.1 µM, the TGI (HS 578T breast) was 46.9 µM and the GI50 (HT29 colon) was 0.164 µM. It also gave a GI50 (IGROV1 ovarian) of 1.45 µM, a TGI (IGROV1 ovarian) greater than 100 µM and a GI50 (K-562 leukemia) of 0.911 µM. For the same compound, the GI50 (KM12 colon) was 0.517 µM, the TGI (KM12 colon) was 2.5 µM and the GI50 (LOX IMVI melanoma) was 0.125 µM. It also gave a TGI (LOX IMVI melanoma) of 1.02 µM, a GI50 (M14 melanoma) of 0.199 µM and a TGI (M14 melanoma) of 2.28 µM. For the same compound, the GI50 (MALME-3M melanoma) was 0.0918 µM, the TGI (MALME-3M melanoma) was 17.5 µM and the GI50 (MCF7 breast) was 0.316 µM. The TGI (MCF7 breast) was 2.11 µM, the GI50 (MDA-MB-231 breast) was 1.23 µM and the TGI (MDA-MB-231 breast) was 3.02 µM. The GI50 (MDA-MB-435) was 0.755 µM, the TGI (MDA-MB-435) was 18.9 µM and the TGI (MOLT-4 leukemia) was 7.12 µM. It also gave a GI50 (NCI-H226 lung) of 4.31 µM, a TGI (NCI-H226 lung) of 16.1 µM and a GI50 (NCI-H23 lung) of 1.25 µM. It also gave a TGI (NCI-H23 lung) of 6.03 µM, a GI50 (NCI-H460 lung) of 0.176 µM and a GI50 (NCI-H522 lung) of 0.339 µM. For the same compound, the TGI (NCI-H522 lung) was 22.7 µM, the GI50 (NCI/ADR-RES ovarian) was 2.28 µM and the TGI (NCI/ADR-RES ovarian) was 9.75 µM. It also gave a GI50 (OVCAR-3 ovarian) of 0.26 µM, a TGI (OVCAR-3 ovarian) of 4.2 µM and a GI50 (OVCAR-4 ovarian) of 2.29 µM. For the same compound, the TGI (OVCAR-4 ovarian) was 12.7 µM, the GI50 (OVCAR-5 ovarian) was 14.3 µM and the TGI (OVCAR-5 ovarian) was 29.2 µM. It also gave a GI50 (OVCAR-8 ovarian) of 0.455 µM, a TGI (OVCAR-8 ovarian) of 6.65 µM and a GI50 (PC-3 prostate) of 0.723 µM. The TGI (PC-3 prostate) was 2.69 µM, the GI50 (RPMI-8226 leukemia) was 0.0772 µM and the GI50 (RXF 393 renal) was 1.04 µM. It also gave a TGI (RXF 393 renal) of 2.56 µM, a GI50 (SF-268 CNS) of 1.71 µM and a TGI (SF-268 CNS) greater than 21.6 µM. For the same compound, the GI50 (SF-295 CNS) was 0.0709 µM, the TGI (SF-295 CNS) was 5.24 µM and the GI50 (SF-539 CNS) was 1.25 µM. It also gave a TGI (SF-539 CNS) of 5.23 µM, a GI50 (SK-MEL-2 melanoma) of 14.3 µM and a TGI (SK-MEL-2 melanoma) of 35.5 µM. The GI50 (SK-MEL-28 melanoma) was 9.99 µM, the TGI (SK-MEL-28 melanoma) was greater than 46.8 µM and the GI50 (SK-MEL-5 melanoma) was 2.02 µM. For the same compound, the TGI (SK-MEL-5 melanoma) was 19.8 µM, the GI50 (SK-OV-3 ovarian) was 5.62 µM and the TGI (SK-OV-3 ovarian) was 23 µM. The GI50 (SN12C renal) was 0.934 µM, the TGI (SN12C renal) was 5.08 µM and the GI50 (SNB-19 CNS) was 2.95 µM. The TGI (SNB-19 CNS) was greater than 42 µM, the GI50 (SNB-75 CNS) was 4.6 µM and the TGI (SNB-75 CNS) was 11.6 µM. For the same compound, the GI50 (SW-620 colon) was 1.89 µM, the TGI (SW-620 colon) was greater than 100 µM and the GI50 (T-47D breast) was 7.18 µM. It also gave a TGI (T-47D breast) of 39 µM, a GI50 (TK-10 renal) of 2.14 µM and a TGI (TK-10 renal) of 6.31 µM. It also gave a GI50 (U251 CNS) of 0.557 µM, a TGI (U251 CNS) of 3.43 µM and a GI50 (UACC-257 melanoma) of 6.3 µM. For the same compound, the TGI (UACC-257 melanoma) was 27.8 µM, the GI50 (UACC-62 melanoma) was 1.73 µM and the TGI (UACC-62 melanoma) was 16 µM. It also gave a GI50 (UO-31 renal) of 1.8 µM and a TGI (UO-31 renal) of 13.1 µM.
For CCC(C)C(NC(=O)C(Cc1cccs1)NC(=O)C(CC(C)C)NC(=O)C(CC(C)C)NC(=O)C(CCCCN)NC(=O)C(CCCN=C(N)N)NC(=O)[C@H](Cc1ccc(O)cc1)NC(=O)C(NC(=O)C(C)NC(=O)C(N)CC(C)C)C(C)O)C(=O)NC(CC(C)C)C(N)=O (stereo partly specified) (H-[ξL][ξA][ξT]Y[ξR][ξK][ξL][ξL][ξ2Thi][ξI][ξL]-NH2), the TGI (BT-549 breast) was greater than 50 µM, the TGI (NCI-H226 lung) was greater than 50 µM and the TGI (NCI-H23 lung) was greater than 50 µM. It also gave a TGI (UACC-257 melanoma) greater than 50 µM.
